Experimental data from patent US7067658B2, “Pyridino and pyrimidino pyrazinones” (Bristol-Myers Squibb Company, priority 2002, dated 2006).

molecular target: T1, cloned human CRF1 receptors (Homo sapiens, UniProt P34998); test: CRF1 receptor binding assay (inhibition of 125I-ovine-CRF binding to membranes of 293EBNA cells transfected with hCRFR1); settings: IC50 ranges as class symbols a-e; read-out: IC50 Range (potency of binding to CRF1 receptor)
T1 construct: the coding region is amplified by PCR from start to stop codons; expressed in transfected cells; host or cells: 293EBNA cells (episomal vector phchCRFR, hygromycin selection); membrane homogenate
T1 sequence (P34998 24-415): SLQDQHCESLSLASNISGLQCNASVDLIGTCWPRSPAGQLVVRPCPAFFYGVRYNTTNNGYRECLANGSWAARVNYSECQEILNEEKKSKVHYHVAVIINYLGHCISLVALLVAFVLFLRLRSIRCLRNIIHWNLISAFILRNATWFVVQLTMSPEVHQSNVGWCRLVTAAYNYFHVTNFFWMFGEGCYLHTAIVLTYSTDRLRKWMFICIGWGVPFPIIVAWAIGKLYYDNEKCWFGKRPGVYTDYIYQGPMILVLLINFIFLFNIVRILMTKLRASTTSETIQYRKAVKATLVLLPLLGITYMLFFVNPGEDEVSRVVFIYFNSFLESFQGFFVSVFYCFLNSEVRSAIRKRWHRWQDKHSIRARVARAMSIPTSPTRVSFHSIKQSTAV
Excerpt: Provided herein is an example of a CRF1 receptor binding assay that can be used for the evaluation of biological activity of compounds of the present invention. The example also includes isolation of cell membranes containing cloned human CRF1 receptors for use in the binding assay.
Messenger RNA is isolated from human hippocampus by standard techniques. The mRNA is reverse transcribed using oligo (dt) 12–18 and the coding region is amplified by PCR from start to stop codons The resulting PCR fragment is cloned into the EcoRV site of pGEMV, from whence the insert is reclaimed using XhoI+XbaI and cloned into the XhoI+XbaI sites of vector pm3ar (which contains a CMV promoter, the SV40 ‘t’ splice and early poly A signals, an Epstein-Barr viral origin of replication, and a hygromycin selectable marker). […] Cells surviving 4 weeks of selection in hygromycin are pooled, adapted to growth in suspension, and used to generate membranes for the binding assay described below. Individual aliquots containing approximately 1×10^8 of the suspended cells are then centrifuged to form a pellet and frozen.
The homogenate is centrifuged at 40,000×g for 12 min and the resulting pellet rehomogenized in 10 mL of tissue buffer. After another centrifugation at 40,000×g for 12 min, the pellet is resuspended to a protein concentration of 360 μg/ml to be used in the assay.
Binding assays are performed in 96 well plates; each well having a 300 μL capacity. […] Plates are then allowed to incubate at room temperature for 2 hours before filtering the incubate over GF/F filters (presoaked with 0.3% polyethyleneimine) using an appropriate cell harvester. Filters are rinsed 2 times with ice cold assay buffer before removing individual filters and assessing them for radioactivity on a gamma counter.

SMILES | IC50 [µM]
Cc1nc2c(-c3ccc(OC(F)(F)F)cc3Cl)ncnc2n(C(C)C2CC2)c1=O (stereo not shown) [Example 1062, 4-(2-Chloro-4-trifluoromethoxy-phenyl)-8-(1-cyclopropyl-ethyl)-6-methyl-8H-pteridin-7-one] | 0.1 to 1

same assay, conditions: IC50 ranges as class symbols a-e; read-out: IC50 Range* (potency of binding to CRF1 receptor)

SMILES | IC50 [µM]
CCC(C1CC1)n1c(=O)c(C)nc2c(-c3cc(Cl)c(OC)cc3C)ccnc21 (stereo not shown) [Example 452, 8-(5-Chloro-4-methoxy-2-methyl-phenyl)-4-(1-cyclopropyl-propyl)-2-methyl-4H-pyrido[2,3-b]pyrazin-3-one] | < 0.001
CCC(COC)n1c(=O)c(C)nc2c(-c3cc(Cl)c(OC)cc3C)ccnc21 (stereo not shown) [Example 459, 8-(5-Chloro-4-methoxy-2-methyl-phenyl)-4-(1-methoxymethyl-propyl)-2-methyl-4H-pyrido[2,3-b]pyrazin-3-one] | 0.001 to 0.01
CCC(C1CC1)n1c(=O)c(C)nc2c(-c3cc(C)c(OC)cc3Cl)ccnc21 (stereo not shown) [Example 484, 8-(2-Chloro-4-methoxy-5-methyl-phenyl)-4-(1-cyclopropyl-propyl)-2-methyl-4H-pyrido[2,3-b]pyrazin-3-one] | < 0.001
CCC(COC)n1c(=O)c(C)nc2c(-c3cc(C)c(OC)cc3Cl)ccnc21 (stereo not shown) [Example 491, 8-(2-Chloro-4-methoxy-5-methyl-phenyl)-4-(1-methoxymethyl-propyl)-2-methyl-4H-pyrido[2,3-b]pyrazin-3-one] | < 0.001
CCC(C1CC1)n1c(=O)c(C)nc2c(-c3cc(F)c(N(C)C)cc3Cl)ccnc21 (stereo not shown) [Example 500, 8-(2-Chloro-4-dimethylamino-5-fluoro-phenyl)-4-(1-cyclopropyl-propyl)-2-methyl-4H-pyrido[2,3-b]pyrazin-3-one] | < 0.001
COCC(C)n1c(=O)c(C)nc2c(-c3cc(F)c(N(C)C)cc3Cl)ccnc21 (stereo not shown) [Example 506, 8-(2-Chloro-4-dimethylamino-5-fluoro-phenyl)-4-(2-methoxy-1-methyl-ethyl)-2-methyl-4H-pyrido[2,3-b]pyrazin-3-one] | 0.001 to 0.01
CCC(COC)n1c(=O)c(C)nc2c(-c3cc(F)c(N(C)C)cc3Cl)ccnc21 (stereo not shown) [Example 507, 8-(2-Chloro-4-dimethylamino-5-fluoro-phenyl)-4-(1-methoxymethyl-propyl)-2-methyl-4H-pyrido[2,3-b]pyrazin-3-one] | < 0.001

same assay, conditions: IC50 ranges, class symbols a-e; read-out: IC50 Range* (potency of binding to CRF1 receptor)

SMILES | IC50 [µM]
CCCC(C)n1c(=O)c(C)nc2c(-c3ccc(Cl)cc3Cl)ccnc21 (racemic) [Example 2, (R,S)-8-(2,4-dichloro-phenyl)-2-methyl-4-(1-methyl-butyl)-4H-pyrido[2,3-b]pyrazin-3-one] | 0.01 to 0.1
CCCC(C1CC1)n1c(=O)c(C)nc2c(-c3ccc(Cl)cc3Cl)ccnc21 (racemic) [Example 5, (R,S)-4-(1-cyclopropyl-butyl)-8-(2,4-dichloro-phenyl)-2-methyl-4H-pyrido[2,3-b]pyrazin-3-one] | 0.001 to 0.01
COCC(C)n1c(=O)c(C)nc2c(-c3ccc(Cl)cc3Cl)ccnc21 (racemic) [Example 9, (R,S)-8-(2,4-dichloro-phenyl)-4-(2-methoxy-1-methyl-ethyl)-2-methyl-4H-pyrido[2,3-b]pyrazin-3-one] | 0.01 to 0.1
CCC(COC)n1c(=O)c(C)nc2c(-c3ccc(Cl)cc3Cl)ccnc21 (racemic) [Example 10, (R,S)-8-(2,4-dichloro-phenyl)-4-(1-methoxymethyl-propyl)-2-methyl-4H-pyrido[2,3-b]pyrazin-3-one] | 0.001 to 0.01
CCCC(C1CC1)n1c(=O)c(C)nc2c(-c3ccc(OC)cc3C)ccnc21 (racemic) [Example 69, (R,S)-4-(1-cyclopropyl-butyl)-8-(4-methoxy-2-methyl-phenyl)-2-methyl-4H-pyrido[2,3-b]pyrazin-3-one] | 0.001 to 0.01
CCCCC(CC)n1c(=O)c(C)nc2c(-c3ccc(OC)nc3C)ccnc21 (racemic) [Example 97, (R,S)-4-(1-ethyl-pentyl)-8-(6-methoxy-2-methyl-pyridin-3-yl)-2-methyl-4H-pyrido[2,3-b]pyrazin-3-one] | 0.1 to 1
CCCC(C1CC1)n1c(=O)c(C)nc2c(-c3ccc(OC)nc3C)ccnc21 (racemic) [Example 101, (R,S)-4-(1-cyclopropyl-butyl)-8-(6-methoxy-2-methyl-pyridin-3-yl)-2-methyl-4H-pyrido[2,3-b]pyrazin-3-one] | 0.01 to 0.1
CCC(C)n1c(=O)c(C)nc2c(-c3ccc(OC(F)F)cc3Cl)ccnc21 (racemic) [Example 113, (R,S)-4-sec-butyl-8-(2-chloro-4-difluoromethoxy-phenyl)-2-methyl-4H-pyrido[2,3-b]pyrazin-3-one] | 0.01 to 0.1
CCCC(C1CC1)n1c(=O)c(C)nc2c(-c3ccc(OC(F)F)cc3Cl)ccnc21 (racemic) [Example 117, (R,S)-8-(2-Chloro-4-difluoromethoxy-phenyl)-4-(1-cyclopropyl-butyl)-2-methyl-4H-pyrido[2,3-b]pyrazin-3-one] | 0.001 to 0.01
CCC(C)n1c(=O)c(C)nc2c(-c3ccc(Cl)cc3Cl)ncnc21 (racemic) [Example 546, (R,S)-8-sec-Butyl-4-(2,4-dichloro-phenyl)-6-methyl-8H-pteridin-7-one] | 0.1 to 1
Cc1nc2c(-c3ccc(Cl)cc3Cl)ccnc2n(CC(C)C)c1=O [Example 1, (R,S)-8-(2,4-dichloro-phenyl)-4-isobutyl-2-methyl-4H-pyrido[2,3-b]pyrazin-3-one] | > 1
CCCC(CCC)n1c(=O)c(C)nc2c(-c3ccc(OC)cc3Cl)ccnc21 [Example 18, (R,S)-8-(2-chloro-4-methoxy-phenyl)-2-methyl-4-(1-propyl-butyl)-4H-pyrido[2,3-b]pyrazin-3-one] | 0.001 to 0.01
CCCC(CCC)n1c(=O)c(C)nc2c(-c3ccc(OC)cc3Cl)ncnc21 [Example 563, 4-(2-Chloro-4-methoxy-phenyl)-6-methyl-8-(1-propyl-butyl)-8H-pteridin-7-one] | 0.001 to 0.01
CCC(C1CCC1)n1c(=O)c(C)nc2c(-c3ccc(OC)cc3Cl)ccnc21 (stereo not shown) [compound 23] | 0.001 to 0.01
COCC(C)n1c(=O)c(C)nc2c(-c3ccc(OC)cc3Cl)ccnc21 (stereo not shown) [compound 25] | 0.01 to 0.1
COCC(C)n1c(=O)c(C)nc2c(-c3ccc(OC)nc3C)ncnc21 (stereo not shown) [compound 650] | > 1

same assay, conditions: Potency of binding to CRF1 receptor, listed as IC50 ranges; read-out: IC50 Range*

SMILES | IC50 [µM]
CCC(COC)n1c(=O)c(C)nc2c(-c3cc(F)c(OC)cc3Cl)ccnc21 (stereo not shown) [Example 250, 8-(2-Chloro-5-fluoro-4-methoxy-phenyl)-4-(1-methoxymethyl-propyl)-2-methyl-4H-pyrido[2,3-b]pyrazin-3-one] | 0.001 to 0.01
